Experimental findings from ChEMBL document CHEMBL4706546, “Sulfoximines as Rising Stars in Modern Drug Discovery? Current Status and Perspective on an Emerging Functional Group in Medicinal Chemistry” (J Med Chem, 2020) are described below.

Data set [1] deals with T1, Estrogen receptor (Homo sapiens, UniProt P03372).
T1 sequence (P03372 whole entry): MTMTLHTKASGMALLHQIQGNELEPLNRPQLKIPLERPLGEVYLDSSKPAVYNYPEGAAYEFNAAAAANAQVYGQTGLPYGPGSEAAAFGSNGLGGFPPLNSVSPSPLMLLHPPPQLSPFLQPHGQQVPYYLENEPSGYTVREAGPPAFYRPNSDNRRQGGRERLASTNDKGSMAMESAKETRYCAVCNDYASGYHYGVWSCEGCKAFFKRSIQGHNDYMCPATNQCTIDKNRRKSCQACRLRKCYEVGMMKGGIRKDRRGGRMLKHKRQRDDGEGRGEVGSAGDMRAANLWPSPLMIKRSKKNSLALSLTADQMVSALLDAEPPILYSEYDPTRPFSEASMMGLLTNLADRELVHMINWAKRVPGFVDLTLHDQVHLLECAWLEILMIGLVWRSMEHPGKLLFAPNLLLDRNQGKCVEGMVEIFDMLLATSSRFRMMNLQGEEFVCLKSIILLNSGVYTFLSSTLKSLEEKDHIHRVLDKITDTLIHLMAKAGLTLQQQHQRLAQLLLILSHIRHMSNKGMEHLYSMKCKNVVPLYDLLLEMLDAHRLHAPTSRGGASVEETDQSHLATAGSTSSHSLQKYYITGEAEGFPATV
Description: Inhibition of wild type ESR1 (unknown origin) by transactivation assay

Data set [2] deals with Cyclin-dependent kinase 1/cyclin B1 (Homo sapiens, UniProt P06493). The data set is classed as cell-based, Sf9.
Data set [3] deals with MCF7. Nature of the data set: cells. The data set is classed as functional, cell-based. As to conditions: Homo sapiens, MCF7, 96 h.
Description: Antiproliferative activity against human MCF7 cells incubated for 4 days by crystal violet staining based assay
In data set [4] the target is Carbonic anhydrase 2 (Homo sapiens, UniProt P00918). The data set is classed as ADME.
Description: Inhibition of human carbonic anhydrase 2 using 4-nitrophenyl acetate as substrate by spectrophotometry
Data set [5] concerns the target T2, Cyclin-dependent kinase 2/cyclin E1 (Homo sapiens, UniProt P24941). Type of data set: cell-based, Sf9.
The target of data set [6] is Vascular endothelial growth factor receptor 2 (Homo sapiens, UniProt P35968). Type of data set: cell-based, Sf9.
Data set [7] concerns Plasmodium falciparum. The data set is described as follows: microbe, parasite or virus in culture. Type of data set: functional, organism-based. Conditions: 3D7, Erythrocyte, 48 h.
Description: Antiplasmodial activity against Plasmodium falciparum 3D7 infected in human erythrocytes incubated for 48 hrs by lactate dehydrogenase colorimetric enzyme assay
Data set [8] deals with T3, 1,25-dihydroxyvitamin D(3) 24-hydroxylase, mitochondrial (Homo sapiens, UniProt Q07973).
T3 sequence (Q07973 whole entry): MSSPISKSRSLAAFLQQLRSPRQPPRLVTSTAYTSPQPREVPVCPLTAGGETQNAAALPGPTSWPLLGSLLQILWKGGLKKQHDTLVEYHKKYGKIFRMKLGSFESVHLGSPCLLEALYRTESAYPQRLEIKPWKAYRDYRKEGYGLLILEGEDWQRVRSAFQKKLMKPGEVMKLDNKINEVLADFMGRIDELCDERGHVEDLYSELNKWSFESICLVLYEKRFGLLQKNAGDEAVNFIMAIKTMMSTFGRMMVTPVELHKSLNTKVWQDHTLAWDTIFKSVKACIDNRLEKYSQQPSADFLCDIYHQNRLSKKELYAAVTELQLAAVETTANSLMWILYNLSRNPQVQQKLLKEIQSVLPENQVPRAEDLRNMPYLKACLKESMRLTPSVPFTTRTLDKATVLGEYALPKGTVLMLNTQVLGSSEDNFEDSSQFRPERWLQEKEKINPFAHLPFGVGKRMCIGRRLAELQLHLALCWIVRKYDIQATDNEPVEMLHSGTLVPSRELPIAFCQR
The data set is described as follows: biochemical. Type of data set: cell-based, V79.

Data set [9] is filed under the species Rattus norvegicus. Nature of the data set: animal or person. The data set is classed as functional. Conditions: iv, 0.5 min, time 30 sec.
Description: Antiallergic activity in iv dosed rat model of IgE-mediated passive cutaneous anaphylaxis administered 30 secs prior to IgE challenge
The target of data set [10] is Dipeptidyl peptidase 4 (Homo sapiens, UniProt P27487).
Description: Inhibition of human DPP4 expressed in baculovirus expression system using Gly-Pro-AMC as substrate by fluorometric assay
The nature of data set [11]: physchem. As to conditions: in vivo, pH 6.5.
Data set [12] has as its target Beta-secretase 1 (Homo sapiens, UniProt P56817). Type of data set: cell-based, HEK293.
Description: Inhibition of BACE1 in HEK293 cells harboring APP assessed as reduction in amyloidbeta 40 level measured after 18 to 20 hrs by AlphaLISA Assay
For data set [13] the following is noted: rat, hepatocytes, 1 µM.
Description: Clearance in rat hepatocytes at 1 uM measured after 2 to 90 mins by HPLC-based LCMS/MS analysis
The conditions of data set [14]: human, hepatocytes, 1 µM.
Description: Clearance in human hepatocytes at 1 uM measured after 2 to 90 mins by HPLC-based LCMS/MS analysis
For data set [15], the target named is cGMP-specific 3',5'-cyclic phosphodiesterase (Homo sapiens, UniProt O76074). The data set is classed as cell-based. Conditions: platelet.
Description: Inhibition of human platelets derived PDE5 using [3H]-cGMP as substrate incubated for 60 min by scintillation proximity assay
Data set [16] in a line: in vitro. As to conditions: human, Caco-2.
Description: Apparent permeability across apical to basolateral side in human Caco2 cells at 2 uM measured after 2 hrs by LC-MS/MS analysis
Data set [17] is described as follows: in vitro. As to conditions: human, Caco-2. The source holds these as a separate data set.
Description: Efflux ratio of apparent permeability across basolateral to apical side over apical to basolateral side in human Caco2 cells
The nature of data set [18]: physchem. As to conditions: in vivo, pH 7.4.
Data set [19] deals with A-375. The data set is described as follows: cells. The data set is classed as functional. Conditions: Homo sapiens, time 72 hrs.
Description: Antiproliferative activity against human A375 cells assessed as cell proliferation at 25 uM after 72 hrs by alamarBlue cell proliferation assay relative to control
Data set [20] in a line: physchem. Conditions: buffer.
Description: Thermodynamic solubility in water by equilibrium shake-flask method
For data set [21], the species on record is Rattus norvegicus. The data set is described as follows: animal or person. Type of data set: functional. Conditions: po, 0.5 h, time 30 min.
Description: Antiallergic activity in po dosed rat model of IgE-mediated passive cutaneous anaphylaxis administered 30 mins prior to IgE challenge
Data set [22] concerns HeLa. Nature of the data set: cells. Type of data set: functional, cell-based. Conditions: Homo sapiens, 96 h.
Description: Antiproliferative activity against human HeLa cells incubated for 96 hrs by crystal violet staining assay
In data set [23] the target is T2, Cyclin-dependent kinase 2/cyclin E1. The data set is classed as cell-based, Sf9. The source holds these as a separate data set.
In data set [24] the target is T4, Nuclear receptor ROR-gamma (Homo sapiens, UniProt P51449).
T4 sequence (P51449 whole entry): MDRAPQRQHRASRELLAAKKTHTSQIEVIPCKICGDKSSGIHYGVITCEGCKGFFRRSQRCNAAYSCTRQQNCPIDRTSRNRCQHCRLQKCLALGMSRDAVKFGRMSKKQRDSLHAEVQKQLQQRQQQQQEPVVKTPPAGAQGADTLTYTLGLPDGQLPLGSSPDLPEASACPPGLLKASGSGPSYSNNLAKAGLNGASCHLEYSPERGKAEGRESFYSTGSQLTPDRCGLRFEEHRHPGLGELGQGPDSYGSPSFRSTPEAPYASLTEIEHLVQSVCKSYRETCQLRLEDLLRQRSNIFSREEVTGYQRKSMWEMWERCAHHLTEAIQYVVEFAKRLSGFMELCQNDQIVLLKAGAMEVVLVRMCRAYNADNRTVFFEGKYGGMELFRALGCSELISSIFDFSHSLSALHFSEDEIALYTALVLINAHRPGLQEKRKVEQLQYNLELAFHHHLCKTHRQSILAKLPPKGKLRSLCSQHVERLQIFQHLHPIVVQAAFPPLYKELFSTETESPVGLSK
Type of data set: cell-based, CD4+ve Th.
Description: Inverse agonist activity at RORgammat in human CD4-positive T cells assessed as reduction in Th17 level incubated for 5 days by MSD electrochemiluminescent cytokine assay

The subject of data set [25] is Plasmodium falciparum. The data set is described as follows: microbe, parasite or virus in culture. The data set is classed as functional, organism-based. As to conditions: 3D7.
Description: Antiplasmodial activity against Plasmodium falciparum 3D7

Converted amounts (≈) assume the structure as drawn.

Chain of Beta-secretase 1 (P56817 whole entry): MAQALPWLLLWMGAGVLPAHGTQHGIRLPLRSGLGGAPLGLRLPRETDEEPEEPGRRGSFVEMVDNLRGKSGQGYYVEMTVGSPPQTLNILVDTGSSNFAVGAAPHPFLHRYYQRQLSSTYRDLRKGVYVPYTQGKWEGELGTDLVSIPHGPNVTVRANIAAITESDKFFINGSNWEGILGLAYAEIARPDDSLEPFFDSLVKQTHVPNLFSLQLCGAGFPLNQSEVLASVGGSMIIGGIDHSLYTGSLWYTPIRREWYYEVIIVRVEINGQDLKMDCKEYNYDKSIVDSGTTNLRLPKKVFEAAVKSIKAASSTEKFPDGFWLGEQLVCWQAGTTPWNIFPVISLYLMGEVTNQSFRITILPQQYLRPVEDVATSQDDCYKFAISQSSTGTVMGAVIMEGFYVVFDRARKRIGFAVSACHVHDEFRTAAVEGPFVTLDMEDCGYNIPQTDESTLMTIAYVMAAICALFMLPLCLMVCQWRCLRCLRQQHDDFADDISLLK
Chain of Vascular endothelial growth factor receptor 2 (P35968 whole entry): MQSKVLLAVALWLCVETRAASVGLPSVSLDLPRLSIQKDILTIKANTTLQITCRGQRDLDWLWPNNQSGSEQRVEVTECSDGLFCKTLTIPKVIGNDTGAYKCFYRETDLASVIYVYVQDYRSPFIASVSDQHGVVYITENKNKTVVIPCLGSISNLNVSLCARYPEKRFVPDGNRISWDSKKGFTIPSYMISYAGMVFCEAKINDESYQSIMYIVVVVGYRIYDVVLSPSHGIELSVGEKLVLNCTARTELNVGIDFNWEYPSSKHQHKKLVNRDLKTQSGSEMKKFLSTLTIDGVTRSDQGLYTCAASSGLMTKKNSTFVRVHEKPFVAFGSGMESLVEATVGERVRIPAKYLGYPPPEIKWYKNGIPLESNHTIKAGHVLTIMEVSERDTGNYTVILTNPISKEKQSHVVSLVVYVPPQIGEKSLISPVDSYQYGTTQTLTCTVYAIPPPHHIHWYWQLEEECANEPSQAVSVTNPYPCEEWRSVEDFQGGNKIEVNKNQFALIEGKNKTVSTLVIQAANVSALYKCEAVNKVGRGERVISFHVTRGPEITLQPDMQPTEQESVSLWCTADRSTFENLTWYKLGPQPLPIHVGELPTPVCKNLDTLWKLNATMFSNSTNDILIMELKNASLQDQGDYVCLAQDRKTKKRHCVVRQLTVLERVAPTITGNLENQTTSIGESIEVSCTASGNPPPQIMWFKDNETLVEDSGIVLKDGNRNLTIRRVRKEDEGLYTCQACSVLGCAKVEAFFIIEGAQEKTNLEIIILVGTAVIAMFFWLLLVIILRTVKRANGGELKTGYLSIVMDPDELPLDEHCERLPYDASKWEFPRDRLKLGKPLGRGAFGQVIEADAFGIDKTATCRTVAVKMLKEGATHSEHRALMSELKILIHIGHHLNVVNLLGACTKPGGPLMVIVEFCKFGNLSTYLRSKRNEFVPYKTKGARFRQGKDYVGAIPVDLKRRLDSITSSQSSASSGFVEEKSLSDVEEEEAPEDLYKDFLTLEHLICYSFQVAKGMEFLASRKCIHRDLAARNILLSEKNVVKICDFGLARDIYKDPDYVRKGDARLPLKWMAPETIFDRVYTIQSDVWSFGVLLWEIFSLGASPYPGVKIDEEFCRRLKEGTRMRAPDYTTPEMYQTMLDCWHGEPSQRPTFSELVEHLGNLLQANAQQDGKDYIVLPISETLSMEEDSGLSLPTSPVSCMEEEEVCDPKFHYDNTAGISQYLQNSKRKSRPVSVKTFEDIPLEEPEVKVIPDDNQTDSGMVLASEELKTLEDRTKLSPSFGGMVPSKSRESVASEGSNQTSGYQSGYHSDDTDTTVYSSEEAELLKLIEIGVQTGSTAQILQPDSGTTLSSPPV
Chain of Dipeptidyl peptidase 4 (P27487 whole entry): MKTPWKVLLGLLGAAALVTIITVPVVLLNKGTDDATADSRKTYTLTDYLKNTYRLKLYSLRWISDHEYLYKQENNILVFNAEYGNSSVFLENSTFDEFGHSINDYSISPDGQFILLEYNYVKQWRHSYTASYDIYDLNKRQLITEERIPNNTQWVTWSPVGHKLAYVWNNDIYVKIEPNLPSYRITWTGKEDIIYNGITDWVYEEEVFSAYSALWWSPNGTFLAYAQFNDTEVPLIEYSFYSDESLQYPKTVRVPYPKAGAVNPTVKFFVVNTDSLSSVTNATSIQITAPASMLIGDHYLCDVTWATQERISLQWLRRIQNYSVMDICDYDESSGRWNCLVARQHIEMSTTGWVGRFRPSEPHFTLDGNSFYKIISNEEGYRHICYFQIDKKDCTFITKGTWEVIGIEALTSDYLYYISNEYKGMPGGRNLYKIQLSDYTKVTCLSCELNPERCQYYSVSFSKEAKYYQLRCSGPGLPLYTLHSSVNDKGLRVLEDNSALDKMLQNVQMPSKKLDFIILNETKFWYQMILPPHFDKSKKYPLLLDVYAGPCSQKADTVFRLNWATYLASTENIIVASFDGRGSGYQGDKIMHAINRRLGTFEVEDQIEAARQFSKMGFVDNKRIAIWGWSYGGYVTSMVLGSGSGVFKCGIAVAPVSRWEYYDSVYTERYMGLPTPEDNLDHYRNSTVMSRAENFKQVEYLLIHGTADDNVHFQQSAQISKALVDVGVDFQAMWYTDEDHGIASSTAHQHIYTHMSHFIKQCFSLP
Chain of Cyclin-dependent kinase 1/cyclin B1 (P06493 whole entry): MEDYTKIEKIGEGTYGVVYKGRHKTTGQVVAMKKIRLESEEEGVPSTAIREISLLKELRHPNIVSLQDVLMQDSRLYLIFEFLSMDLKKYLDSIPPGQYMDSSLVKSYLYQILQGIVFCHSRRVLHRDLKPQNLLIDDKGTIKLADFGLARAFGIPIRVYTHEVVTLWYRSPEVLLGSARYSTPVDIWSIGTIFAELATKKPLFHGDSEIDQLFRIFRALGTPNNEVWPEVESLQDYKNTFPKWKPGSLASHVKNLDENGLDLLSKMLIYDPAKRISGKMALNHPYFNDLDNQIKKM
Chain of Cyclin-dependent kinase 1/cyclin B1 (P14635 whole entry, further chain): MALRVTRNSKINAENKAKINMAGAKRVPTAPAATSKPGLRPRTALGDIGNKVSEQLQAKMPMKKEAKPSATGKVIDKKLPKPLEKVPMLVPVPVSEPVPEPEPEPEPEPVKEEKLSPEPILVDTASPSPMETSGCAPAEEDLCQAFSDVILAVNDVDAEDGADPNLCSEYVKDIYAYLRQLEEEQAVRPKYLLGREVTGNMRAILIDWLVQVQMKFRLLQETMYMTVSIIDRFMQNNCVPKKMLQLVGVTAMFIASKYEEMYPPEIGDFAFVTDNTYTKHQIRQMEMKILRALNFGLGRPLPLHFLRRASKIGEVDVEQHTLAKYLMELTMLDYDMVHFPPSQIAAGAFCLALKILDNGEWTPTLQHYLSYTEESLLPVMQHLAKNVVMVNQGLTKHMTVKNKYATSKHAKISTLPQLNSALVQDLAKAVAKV

What is called IC50 is the point on the concentration scale where inhibition reaches its midpoint. Low readings indicate greater potency, high ones weaker potency. In the case of `C[C@]12CC[C@@H]3c4ccc(O)cc4C[C@@H](CCCCCCCCC[S@@](=N)(=O)CCCC(F)(F)C(F)(F)F)[C@H]3[C@@H]1CC[C@@H]2O`, the IC50 in data set [1] was 1.8 nM.
Take `CCS(=N)(=O)c1ccc(Nc2ncc(Br)c(O[C@H](C)[C@@H](C)O)n2)cc1` (some centres not stated): the IC50 was 2 nM in data set [2]; 44 nM in data set [3]; above 10000 nM in [4]; 3 nM in [5]; 32 nM in [6].
Compound `CC(C)(C)c1ccc2c(c1)[C@H]1O[C@H](COCc3ccccc3)[C@@H](OCc3ccccc3)[C@H](OCc3ccccc3)[C@H]1C[S@@]2(=N)=O` showed an IC50 in data set [7] of 800 nM.
Turning to `C=C1/C(=C\C=C2/CCC[C@]3(C)C([C@H](C)/C=C/S(=O)(=O)C(C)(C)C)=CC[C@@H]23)C[C@@H](O)C[C@@H]1O`, the IC50 in data set [8] was determined as 27 nM.
The term ED50 denotes the dose that gives a 50% effect, or the effect in half of the subjects. Higher therefore signals a need for a large dose. With `O=C([O-])c1cc(=O)c2c(OCC(O)COc3cccc4oc(C(=O)[O-])cc(=O)c34)cccc2o1.[Na+].[Na+]` [CROMOLYN SODIUM], the 50% effect level in data set [9] (ED50) was put at a dose of 1.21 mg/kg.
In [10], `CS(=O)(=NS(=O)(=O)c1ccccc1)n1cc2c(n1)CN([C@H]1CO[C@H](c3cc(F)ccc3F)[C@@H](N)C1)C2` (some centres not stated) yielded an IC50 of 18 nM.
In data set [10], `N[C@H]1C[C@@H](N2Cc3cn(S(=O)(=O)NC(=O)c4ccccc4)nc3C2)CO[C@@H]1c1cc(F)ccc1F` displayed an IC50 of 8.8 nM.
The thermodynamic solubility is the concentration in solution at equilibrium with solid. `COc1cc(F)ccc1-c1nc(Nc2cc(F)cc(CS(C)(=N)=N)c2)ncc1F` came in with a solubility (thermodynamic) at 24 h in data set [11] of 91 µg/mL (≈ 216 µM).
For the compound `C[C@@]1(c2cc(NC(=O)c3cnc(C#N)cn3)ccc2F)CS2(=O)=NCC(F)(F)CN2C(N)=N1` (single isomer, unassigned), half-maximal inhibition in [12] (IC50) was put at 2 nM.
As for `O=C(NC1CCNCC1)c1n[nH]cc1NC(=O)c1c(Cl)cccc1Cl` [AT-7519], the CLH worked out at 29.3 mL/min/kg in data set [13] and 4 mL/min/kg in data set [14].
Turning to `C[C@@H](O)[C@@H](C)Oc1nc(Nc2ccc(S(C)(=O)=O)cc2)ncc1C(F)(F)F`, the IC50 in [4] is above 10000 nM.
The term Papp A→B denotes the apparent permeability from the apical to the basolateral side of a cell layer. Low values mean poor permeation, high ones ready permeation. A word on the efflux ratio: it is the permeability from basolateral to apical divided by that in the opposite direction, in the common usage. Turning to `CCCc1nc(C)c2c(=O)[nH]c(-c3cc(S(=O)(=O)N4CCS(=N)(=O)CC4)ccc3OCC)nn12`, in data set [15], the IC50 was determined as 0.025 nM. In addition, the Papp A→B at 2 h, 2 µM in data set [16] was determined as 0.71 ×10⁻⁶ cm/s. Moreover, the efflux ratio in data set [17] is 288.
In data set [12], `CN=S1(=O)C[C@@](C)(c2cc(NC(=O)c3ncc(C#N)cc3C)ccc2F)N=C(N)N1CC(F)(F)F` (single isomer, unassigned) had an IC50 of 0.59 nM.
The compound `COc1cc(F)ccc1-c1ncnc(Nc2cccc(CS(N)(=O)=O)c2)n1` showed a solubility (thermodynamic) at 24 h in data set [18] of 11 µg/mL (≈ 28.2 µM).
`O=C(NS(=O)(=O)c1ccc(Br)s1)c1ccc(Cl)cc1Cl` showed a growth at 25 µM in data set [19] of 25%.
`C[C@@H](O)[C@@H](C)Oc1nc(Nc2ccc([S@](=N)(=O)C3CC3)cc2)ncc1C(F)(F)F` came in with a solubility (thermodynamic) in [20] of 182 µg/mL (≈ 423 µM). Moreover, the IC50 in [4] was above 10000 nM; in data set [6], 163 nM.
The compound `Cc1cc(C#N)cnc1C(=O)Nc1ccc(F)c([C@]2(C)CS(=O)(=NCC(F)(F)F)N(C)C(N)=N2)c1` (single isomer, unassigned) showed an IC50 in data set [12] of 0.99 nM.
As to `CCCCCCc1cc(S(C)(=N)=O)cc2c(=O)c3cc(C(=O)O)ccc3oc12` (configuration not stated) [SUDEXANOX], in data set [21], the ED50 turned out to be 0.19 mg/kg.
As for `N=S(=O)(NC(=O)c1ccc(Cl)cc1Cl)c1ccc(Br)s1` (configuration not stated), the growth at 25 µM in [19] is 40%.
Turning to `C[C@H](CO)Nc1nc(Nc2ccc(S(N)(=O)=O)cc2)ncc1Br.Cl`, the thermodynamic solubility in data set [20] turned out to be 8 µg/mL. The IC50 was 514 nM in data set [4] and 34 nM in data set [6].
In data set [7], `CN=S1(=O)C[C@@H]2[C@@H](OCc3ccccc3)[C@H](OCc3ccccc3)[C@@H](COCc3ccccc3)O[C@@H]2c2cc(C(C)(C)C)ccc21` (some centres not stated) gave an IC50 of 900 nM.
`N#Cc1ccc(C(=O)Nc2ccc(F)c([C@]3(CF)CS4(=O)=NCCCCN4C(N)=N3)c2)nc1` (single isomer, unassigned) showed an IC50 in data set [12] of 28 nM.
In data set [18], `COc1cc(F)ccc1-c1ncnc(Nc2cccc(C[S@](C)(=N)=O)c2)n1` [ATUVECICLIB] yielded a thermodynamic solubility at 24 h of 479 µg/mL (≈ 1240 µM). The IC50 in [22] was 1500 nM.
On to `COc1cc(F)ccc1-c1cc(Nc2cc(C[S@@](C)(=N)=O)ccn2)ncc1F`, for which the IC50 in data set [23] came to 2920 nM.
Consider `N=S1(=O)CCC(NC(=O)c2n[nH]cc2NC(=O)c2c(Cl)cccc2Cl)CC1` (configuration not stated), for which the CLH in [13] and in data set [14] was 1 mL/min/kg in each case.
On to `CCc1ccc(N(CC(C)C)S(=O)(=O)c2ccc(OCC3CCOCC3)c(CO)c2)cc1` [GSK2981278], for which it took 3.2 nM to reach half-maximal inhibition in [24] (IC50).
`CS(=N)(=O)c1ccc2oc3ccc(C(=O)O)cc3c(=O)c2c1` (configuration not stated): the ED50 in [9] is 0.03 mg/kg.
In [16], `CCCc1nc(C)c2c(=O)[nH]c(-c3cc(S(=O)(=O)N4CCN(CC)CC4)ccc3OCC)nn12` yielded a Papp A→B at 2 h, 2 µM of 206 ×10⁻⁶ cm/s.
In data set [25], `CCCCCCCCCCCS(=O)(=NCc1cn(Cc2ccccc2)nn1)c1ccccc1` (configuration not stated) returned an IC50 of 6600 nM.
